pIC50: −log10 of the molar value.
Assays:
K562 = assay: Antiproliferative activity against human K562 cells assessed as growth inhibition at 10 uM after 48 hrs by sulforhodamine B assay relative to control; format: functional; conditions: K562, 48 h, read-out: GI
MOLT-4 = assay: Antiproliferative activity against human MOLT4 cells assessed as growth inhibition at 10 uM after 48 hrs by sulforhodamine B assay relative to control; format: functional; conditions: MOLT-4, 48 h, read-out: GI
SR = assay: Antiproliferative activity against human SR cells assessed as growth inhibition at 10 uM after 48 hrs by sulforhodamine B assay relative to control; format: functional; conditions: read-out: GI
HL-60(TB) = assay: Antiproliferative activity against human HL-60(TB) cells assessed as growth inhibition at 10 uM after 48 hrs by sulforhodamine B assay relative to control; format: functional; conditions: HL-60, 48 h, read-out: GI
A549 [1] = assay: Antiproliferative activity against human A549/ATCC cells assessed as growth inhibition at 10 uM after 48 hrs by sulforhodamine B assay relative to control; format: functional; conditions: A549, 48 h, read-out: GI
NCI-H322M = assay: Antiproliferative activity against human NCI-H322M cells assessed as growth inhibition at 10 uM after 48 hrs by sulforhodamine B assay relative to control; format: functional; conditions: read-out: GI
NCI-H522 = assay: Antiproliferative activity against human NCI-H522 cells assessed as growth inhibition at 10 uM after 48 hrs by sulforhodamine B assay relative to control; format: functional; conditions: NCI-H522, 48 h, read-out: GI
NCI-H460 = assay: Antiproliferative activity against human NCI-H460 cells assessed as growth inhibition at 10 uM after 48 hrs by sulforhodamine B assay relative to control; format: functional; conditions: NCI-H460, 48 h, read-out: GI
HCT-116 [2] = assay: Antiproliferative activity against human HCT116 cells assessed as growth inhibition at 10 uM after 48 hrs by sulforhodamine B assay relative to control; format: functional; conditions: HCT-116, 48 h, read-out: GI
HCT-15 = assay: Antiproliferative activity against human HCT15 cells assessed as growth inhibition at 10 uM after 48 hrs by sulforhodamine B assay relative to control; format: functional; conditions: HCT-15, 48 h, read-out: GI
SF-295 = assay: Antiproliferative activity against human SF295 cells assessed as growth inhibition at 10 uM after 48 hrs by sulforhodamine B assay relative to control; format: functional; conditions: SF-295, 48 h, read-out: GI
LOX IMVI = assay: Antiproliferative activity against human LOXIMVI cells assessed as growth inhibition at 10 uM after 48 hrs by sulforhodamine B assay relative to control; format: functional; conditions: read-out: GI
UACC-62 = assay: Antiproliferative activity against human UACC62 cells assessed as growth inhibition at 10 uM after 48 hrs by sulforhodamine B assay relative to control; format: functional; conditions: UACC-62, 48 h, read-out: GI
SK-MEL-5 = assay: Antiproliferative activity against human SK-MEL-5 cells assessed as growth inhibition at 10 uM after 48 hrs by sulforhodamine B assay relative to control; format: functional; conditions: SK-MEL-5, 48 h, read-out: GI
OVCAR-4 = assay: Antiproliferative activity against human OVCAR4 cells assessed as growth inhibition at 10 uM after 48 hrs by sulforhodamine B assay relative to control; format: functional; conditions: OVCAR-4, 48 h, read-out: GI
NCI/ADR-RES = assay: Antiproliferative activity against human NCI/ADR-RES cells assessed as growth inhibition at 10 uM after 48 hrs by sulforhodamine B assay relative to control; format: functional; conditions: read-out: GI
ACHN = assay: Antiproliferative activity against human ACHN cells assessed as growth inhibition at 10 uM after 48 hrs by sulforhodamine B assay relative to control; format: functional; conditions: read-out: GI
CAKI-1 = assay: Antiproliferative activity against human Caki1 cells assessed as growth inhibition at 10 uM after 48 hrs by sulforhodamine B assay relative to control; format: functional; conditions: CAKI-1, 48 h, read-out: GI
UO-31 = assay: Antiproliferative activity against human UO31 cells assessed as growth inhibition at 10 uM after 48 hrs by sulforhodamine B assay relative to control; format: functional; conditions: UO-31, 48 h, read-out: GI
PC-3 [3] = assay: Antiproliferative activity against human PC3 cells assessed as growth inhibition at 10 uM after 48 hrs by sulforhodamine B assay relative to control; format: functional; conditions: PC-3, 48 h, read-out: GI
MCF7 [4] = assay: Antiproliferative activity against human MCF7 cells assessed as growth inhibition at 10 uM after 48 hrs by sulforhodamine B assay relative to control; format: functional; conditions: MCF7, 48 h, read-out: GI
T47D = assay: Antiproliferative activity against human T47D cells assessed as growth inhibition at 10 uM after 48 hrs by sulforhodamine B assay relative to control; format: functional; conditions: read-out: GI
MDA-MB-468 = assay: Antiproliferative activity against human MDA-MB-468 cells assessed as growth inhibition at 10 uM after 48 hrs by sulforhodamine B assay relative to control; format: functional; conditions: MDA-MB-468, 48 h, read-out: GI
MCF7 [5] = assay: Cytotoxicity against human MCF7 cells after 24 hrs by MTT assay; format: functional, cell-based; conditions: MCF7, 24 h
MRC5 = assay: Cytotoxicity against human MRC5 cells; format: cell-based
BJ = assay: Cytotoxicity against human BJ cells; format: cell-based
[6] = Cytotoxicity against human WPE1-NA22 cells; format: cell-based
[7] = biological target: Vascular endothelial growth factor receptor 2 (Homo sapiens, UniProt P35968)
Vascular endothelial growth factor receptor 2, sequence (P35968 whole entry): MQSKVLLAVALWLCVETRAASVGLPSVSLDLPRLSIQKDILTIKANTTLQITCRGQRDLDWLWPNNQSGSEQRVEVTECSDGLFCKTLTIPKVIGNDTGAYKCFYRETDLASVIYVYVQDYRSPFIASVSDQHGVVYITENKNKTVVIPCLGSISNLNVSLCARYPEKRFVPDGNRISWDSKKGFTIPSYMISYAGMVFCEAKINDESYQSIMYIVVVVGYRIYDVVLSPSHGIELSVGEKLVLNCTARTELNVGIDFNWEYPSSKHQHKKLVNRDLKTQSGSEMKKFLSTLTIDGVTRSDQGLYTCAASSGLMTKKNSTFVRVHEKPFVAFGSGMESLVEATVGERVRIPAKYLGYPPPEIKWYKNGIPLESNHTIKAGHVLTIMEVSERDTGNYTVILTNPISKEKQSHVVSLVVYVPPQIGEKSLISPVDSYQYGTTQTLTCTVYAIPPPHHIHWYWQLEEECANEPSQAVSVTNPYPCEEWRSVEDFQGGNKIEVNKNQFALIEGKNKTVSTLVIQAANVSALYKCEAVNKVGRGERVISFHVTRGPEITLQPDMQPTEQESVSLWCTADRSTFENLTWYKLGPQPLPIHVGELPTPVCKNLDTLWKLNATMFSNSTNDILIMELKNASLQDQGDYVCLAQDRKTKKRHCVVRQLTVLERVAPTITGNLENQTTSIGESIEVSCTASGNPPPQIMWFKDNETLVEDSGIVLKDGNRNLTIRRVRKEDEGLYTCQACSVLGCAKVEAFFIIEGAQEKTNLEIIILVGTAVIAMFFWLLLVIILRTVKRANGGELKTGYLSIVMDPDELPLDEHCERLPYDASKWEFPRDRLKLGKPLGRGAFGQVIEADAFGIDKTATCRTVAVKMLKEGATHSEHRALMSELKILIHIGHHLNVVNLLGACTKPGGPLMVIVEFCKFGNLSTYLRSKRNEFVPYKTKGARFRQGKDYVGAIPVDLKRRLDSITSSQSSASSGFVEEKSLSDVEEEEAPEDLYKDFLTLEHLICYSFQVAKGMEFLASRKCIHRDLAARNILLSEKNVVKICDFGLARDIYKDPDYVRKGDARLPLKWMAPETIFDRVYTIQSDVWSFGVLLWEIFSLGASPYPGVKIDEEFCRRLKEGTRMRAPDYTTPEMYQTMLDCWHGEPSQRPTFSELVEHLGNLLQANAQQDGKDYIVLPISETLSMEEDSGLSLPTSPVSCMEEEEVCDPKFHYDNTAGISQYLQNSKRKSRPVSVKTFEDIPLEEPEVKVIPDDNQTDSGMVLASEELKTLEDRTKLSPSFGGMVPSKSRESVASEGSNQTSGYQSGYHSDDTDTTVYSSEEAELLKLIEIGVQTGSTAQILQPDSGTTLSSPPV
Description: Inhibition of human VEGFR-2 incubated for 2.5 hrs by ELISA

[8] = biological target: T1, Serine/threonine-protein kinase mTOR (Homo sapiens, UniProt P42345); assay: Inhibition of mTOR (unknown origin) incubated for 1 hr by ELISA relative to control; conditions: concentration not given here
[9] = biological target: T1, Serine/threonine-protein kinase mTOR; assay: Inhibition of mTOR (unknown origin) incubated for 1 hr by ELISA
HeLa = assay: Cytotoxicity against human HeLa cells; format: functional, cell-based
PC-3 [10] = assay: cells; conditions: Homo sapiens, PC-3, 24 h
Description: Cytotoxicity against human PC3 cells after 24 hrs by MTT assay

HCT-116 [11] = assay: cells; conditions: Homo sapiens, HCT-116, 24 h
Description: Cytotoxicity against human HCT116 cells after 24 hrs by MTT assay

A549 [12] = assay: Induction of apoptosis in human A549 cells assessed as caspase3 expression at 7.4 uM after 2 hrs by ELISA (reference value: 53.45 ng/ml); format: functional
A549 [13] = assay: Induction of apoptosis in human A549 cells assessed as caspase9 expression at 7.4 uM after 2 hrs by ELISA (reference value: 0.1726 ng/ml); format: functional
A549 [14] = assay: Cell cycle arrest in human A549 cells assessed as accumulation of cells at G0/G1 phase at 2 uM after 24 hrs by propidium iodide staining-based flow cytometric analysis (reference value: 67.62%); format: functional
A549 [15] = assay: Cell cycle arrest in human A549 cells assessed as accumulation of cells at S phase at 2 uM after 24 hrs by propidium iodide staining-based flow cytometric analysis (reference value: 25.26%); format: functional
A549 [16] = assay: Cell cycle arrest in human A549 cells assessed as accumulation of cells at G2/M phase at 2 uM after 24 hrs by propidium iodide staining-based flow cytometric analysis (reference value: 6.2%); format: functional
A549 [17] = assay: Cell cycle arrest in human A549 cells assessed as accumulation of cells at pre-G1 phase at 2 uM after […] by propidium iodide staining-based flow cytometric analysis (reference value: 0.92%); format: functional
A549 [18] = assay: Induction of apoptosis in human A549 cells assessed as viable cells at 2 uM after 24 hrs by Annexin V-FITC/propidium iodide staining-based flow cytometric analysis (reference value: 97.5%); format: functional; conditions: A549, 24 h, read-out: Activity
A549 [19] = assay: Induction of apoptosis in human A549 cells assessed as early apoptotic cells at 2 uM after 24 hrs by Annexin V-FITC/propidium iodide staining-based flow cytometric analysis (reference value: 0.52%); format: functional
A549 [20] = assay: Induction of apoptosis in human A549 cells assessed as late apoptotic cells at 2 uM after 24 hrs by Annexin V-FITC/propidium iodide staining-based flow cytometric analysis (reference value: 0.33%); format: functional
A549 [21] = assay: Induction of apoptosis in human A549 cells assessed as necrotic cells at 2 uM after 24 hrs by Annexin V-FITC/propidium iodide staining-based flow cytometric analysis (reference value: 0.07%); format: functional
A549 [22] = assay: Induction of apoptosis in human A549 cells 24 hrs by propidium iodide staining-based flow cytometric analysis (reference value: 0.92%); format: functional

CCOC(=O)C1=C(CSC(=S)N2CCN(c3ccccc3)CC2)N(C)C(=O)NC1c1ccccc1 (configuration not stated)
inhibition of growth at 10 µM (K562): 22%
inhibition of growth at 10 µM (MOLT-4): 24%
inhibition of growth at 10 µM (SR): 44%
inhibition of growth at 10 µM (HL-60(TB)): 20%
inhibition of growth at 10 µM (A549 [1]): 27%
inhibition of growth at 10 µM (NCI-H322M): 15%
inhibition of growth at 10 µM (NCI-H522): 28%
inhibition of growth at 10 µM (NCI-H460): 12%
inhibition of growth at 10 µM (HCT-116 [2]): 41%
inhibition of growth at 10 µM (HCT-15): 48%
inhibition of growth at 10 µM (SF-295): 17%
inhibition of growth at 10 µM (LOX IMVI): 13%
inhibition of growth at 10 µM (UACC-62): 24%
inhibition of growth at 10 µM (SK-MEL-5): 23%
inhibition of growth at 10 µM (OVCAR-4): 15%
inhibition of growth at 10 µM (NCI/ADR-RES): 5%
inhibition of growth at 10 µM (ACHN): 11%
inhibition of growth at 10 µM (CAKI-1): 15%
inhibition of growth at 10 µM (UO-31): 37%
inhibition of growth at 10 µM (PC-3 [3]): 41%
inhibition of growth at 10 µM (MCF7 [4]): 15%
inhibition of growth at 10 µM (T47D): 37%
inhibition of growth at 10 µM (MDA-MB-468): 14%

CCOC(=O)C1=C(CN(C2CCCCC2)C2CCCCC2)N(C)C(=O)NC1c1ccccc1 (configuration not stated)
inhibition of growth at 10 µM (K562): 31%
inhibition of growth at 10 µM (MOLT-4): 35%
inhibition of growth at 10 µM (SR): 20%
inhibition of growth at 10 µM (HL-60(TB)): 37%
inhibition of growth at 10 µM (A549 [1]): 33%
inhibition of growth at 10 µM (NCI-H322M): 5%
inhibition of growth at 10 µM (NCI-H522): 18%
inhibition of growth at 10 µM (NCI-H460): 13%
inhibition of growth at 10 µM (HCT-116 [2]): 33%
inhibition of growth at 10 µM (HCT-15): 11%
inhibition of growth at 10 µM (SF-295): 19%
inhibition of growth at 10 µM (LOX IMVI): 13%
inhibition of growth at 10 µM (UACC-62): 23%
inhibition of growth at 10 µM (SK-MEL-5): 19%
inhibition of growth at 10 µM (OVCAR-4): 26%
inhibition of growth at 10 µM (NCI/ADR-RES): 7%
inhibition of growth at 10 µM (ACHN): 13%
inhibition of growth at 10 µM (CAKI-1): 30%
inhibition of growth at 10 µM (UO-31): 27%
inhibition of growth at 10 µM (PC-3 [3]): 58%
inhibition of growth at 10 µM (MCF7 [4]): 36%
inhibition of growth at 10 µM (T47D): 46%
inhibition of growth at 10 µM (MDA-MB-468): 21%

CCOC(=O)C1=C(CSc2nc3cc([N+](=O)[O-])ccc3[nH]2)N(C)C(=O)NC1c1ccccc1 (configuration not stated)
pIC50 (MCF7 [5]): 5.03
pIC50 (MRC5): 4.35
pIC50 (BJ): 4.43
pIC50 [6]: 4.66
pIC50 [7]: 5.92
inhibition [8]: 84.6%
pIC50 [9]: 6.14
pIC50 (HeLa): 5.85
pIC50 (PC-3 [10]): 5.04
pIC50 (HCT-116 [11]): 5.14

CCOC(=O)C1=C(CSC(=S)N2CCN(c3ccccc3OCC)CC2)N(C)C(=O)NC1c1ccccc1 (configuration not stated)
pIC50 (MCF7 [5]): 4.27
pIC50 (PC-3 [10]): 4.14
pIC50 (HCT-116 [11]): 4.17

O=c1[nH]cc(F)c(=O)[nH]1 [FLUOROURACIL]
Activity (A549 [12]): 582.1 ng/mL
Activity (A549 [13]): 16.84 ng/mL
Activity (A549 [14]): 47.36%
Activity (A549 [15]): 16.08%
Activity (A549 [16]): 21.04%
Activity (A549 [17]): 15.52%
viability at 2 µM (A549 [18]): 82.7%
Activity (A549 [19]): 6.37%
Activity (A549 [20]): 6.59%
Activity (A549 [21]): 2.52%
Activity (A549 [22]): 15.52%

CO[C@H]1C[C@@H]2CC[C@@H](C)[C@@](O)(O2)C(=O)C(=O)N2CCCC[C@H]2C(=O)O[C@H]([C@H](C)C[C@@H]2CC[C@@H](O)[C@H](OC)C2)CC(=O)[C@H](C)/C=C(\C)[C@@H](O)[C@@H](OC)C(=O)[C@H](C)C[C@H](C)/C=C/C=C/C=C/1C [SIROLIMUS]
inhibition [8]: 94.9%
pIC50 (HeLa): 6.11
